In ChEMBL document CHEMBL6153109, “Switching Roles─Exploring Concentration-Dependent Agonistic versus Antagonistic Behavior of Integrin Ligands” (J Med Chem, 2025):
Active and inactive are the calls of the source. The rule behind the calls is not given here.

Tests used:
[1] = system: M21; assay: Inhibition of cell adhesion in human M21 cells expressing integrin alphaVbeta3 at 1 uM measured after 48 hrs by microscopic imaging analysis; format: functional, cell-based
[2] = Inhibition of cell migration in human OV-MZ-6 cells expressing integrin alpha5beta1 assessed as cell coverage at 1 uM measured within 72 hrs by wound scratch assay relative to control; format: functional; design: scale not given: the % may be the effect or the level left
[3] = system: M21; assay: Inhibition of cell adhesion in human M21 cells expressing integrin alphaVbeta3 at 1 nM measured after 48 hrs by microscopic imaging analysis; format: functional, cell-based
[4] = system: M21; assay: Inhibition of cell migration in human M21 cells expressing integrin alphaVbeta3 assessed as cell coverage at 1 uM measured within 72 hrs by wound scratch assay (reference value: 95 %); format: functional; design: scale not given: the % may be the effect or the level left
[5] = system: M21; assay: Inhibition of cell migration in human M21 cells expressing integrin alphaVbeta3 assessed as delay in wound gap closure at 1 uM measured after 72 hrs by wound scratch assay; format: functional, cell-based
[6] = target: T1, Integrin alpha-5/beta-1 (Homo sapiens, UniProt P05556+P08648); assay: Agonist activity at integrin alpha5beta1 in human OV-MZ-6 cells assessed as increase in FAK expression at 1 to 1000 nM measured after 5 to 60 mins by Western blot analysis; format: cell-based; conditions: dose 1-1000 nM, time 5-60 min
[7] = system: M21; assay: Inhibition of cell migration in human M21 cells expressing integrin alphaVbeta3 assessed as delay in wound gap closure at 1 nM measured after 9 to 72 hrs by wound scratch assay; format: functional, cell-based; conditions: time 9-72 hrs
[8] = target: T1, Integrin alpha-5/beta-1; assay: Agonist activity at integrin alpha5beta1 in human OV-MZ-6 cells assessed as fold increase in p-ERK1/2 expression at 1 uM incubated for 24 hrs by Western blot analysis; format: cell-based; conditions: filed as agonist
[9] = system: OV-MZ-6; assay: Inhibition of cell migration in human OV-MZ-6 cells expressing integrin alpha5beta1 assessed as delay in wound gap closure at 1 to 1000 nM measured after 24 to 72 hrs by wound scratch assay relative to control; format: functional, cell-based; conditions: dose 1-1000 nM, time 24-72 hrs
[10] = target: T1, Integrin alpha-5/beta-1; assay: Agonist activity at integrin alpha5beta1 in human OV-MZ-6 cells assessed as increase in p-FAK expression at 1 nM measured after 30 to 60 mins by Western blot analysis; format: cell-based; conditions: time 30-60 min

Activity [6]: inactive
fold change (FC) [8]: 3.1
Activity [10]: inactive
Structure (SMILES): CC(C)[C@H]1C(=O)N[C@@H](CCCNC(=N)N)C(=O)NCC(=O)N[C@@H](CC(=O)O)C(=O)N[C@H](Cc2ccccc2)C(=O)N1C [CILENGITIDE]
inhibition [1]: Active
Activity [2]: 60%
inhibition [3]: inactive
Activity [4]: 40%
inhibition [5]: Active
inhibition [7]: inactive
inhibition [9]: inactive
